Experiments:
CCK-B/gastrin receptor = target: T1, CCK-B/gastrin receptor (Rattus norvegicus, UniProt P30553); conditions: reportedly; cited from earlier work
T1 sequence (P30553 1-452): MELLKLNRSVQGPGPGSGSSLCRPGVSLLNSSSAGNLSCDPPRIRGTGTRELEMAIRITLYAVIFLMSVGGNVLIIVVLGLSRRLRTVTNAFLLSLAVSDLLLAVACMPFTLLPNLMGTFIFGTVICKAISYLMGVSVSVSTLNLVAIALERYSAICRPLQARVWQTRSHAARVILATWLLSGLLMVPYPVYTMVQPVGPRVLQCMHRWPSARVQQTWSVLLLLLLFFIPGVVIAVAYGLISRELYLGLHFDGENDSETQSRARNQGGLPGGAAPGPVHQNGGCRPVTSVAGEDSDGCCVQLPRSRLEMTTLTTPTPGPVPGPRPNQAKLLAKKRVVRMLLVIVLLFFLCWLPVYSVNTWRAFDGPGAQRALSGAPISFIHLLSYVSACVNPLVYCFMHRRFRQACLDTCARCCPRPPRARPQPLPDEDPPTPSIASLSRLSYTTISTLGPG

gastrin deficient mice [1] = experiment: Gastric acid secretion, pyloric ligation, after infusion in gastrin deficient mice; assay type: in vivo; conditions: 10 nmol/kg/hr, 4 hours pyloric ligation, saline 5.4±2.0 nEq
Protocol: Animals were operated and sacrificed under anesthesia with Metofane.
(§1) The mice were fasted 24 hours prior to sacrifice.
After food deprivation for 24 hours, the mice were anesthetized with avertin, the abdominal cavity was incised, and each stomach was rinsed with 1 ml saline through a canula placed in the pylorus. The pylorus was then ligated and the gastric juice was collected 4 hours later (61). The acidity of the gastric contents was measured by titration with 0.02 N NaOH and expressed as H^+ nEq.

H+/K+-ATPase = H+/K+-ATPase expression by immunohistochemical analysis; assay type: in vivo, mice; conditions: compared to infusion of saline alone
Protocol: as §1
(§2) At the time of sacrifice, the stomach was divided into thirds longitudinally. One section was fixed in Carnoy's fixative overnight, and then embedded in paraffin. Routine H&E staining was performed. Parietal cells were stained using an antibody to the β subunit of H+/K+-ATPase MA3-923 (Affinity Bioreagents, Golden, Colo.) at a final dilution of 1:100, as previously described (62). Ten well oriented fundic glands were examined for parietal cell number, with the result expressed as number of parietal cells per gland (51).

gastrin deficient mice [2] = experiment: Gastric fundic mucosa proliferation by BrdU incorporation; assay type: in vivo; conditions: infusion 10 nmol/kg/hr; G-17 effect at one day; versus saline or G-17 alone
Protocol: as §1
Immunohistochemical detection of BrdU incorporation was performed using the avidin-biotin monoclonal antibody technique as previously described (51). Ten well oriented oxyntic glands or colonic crypts were counted per slide. Of the ten colonic crypts, 4 were obtained from the rectum, 3 from the descending colon, and 3 from the ascending colon. The BrdU labeling index was calculated by counting the number of BrdU-positive cells per gland/crypt and expressing the result as a percentage of the total number of cells per gland/crypt.

gastrin deficient mice [3] = experiment: Electron microscopy of parietal cells (activation, vacuolar canaliculi, lipofuscin bodies); assay type: in vivo
Protocol: as §1
Small tissue specimens (<1 mm^3) were taken from the oxyntic gland area and immediately immersed in a mixture of […] 1% glutaraldehyde, 3% formaldehyde, 0.075M sodium phoshpate buffer, pH 7.2, for 6 hours. The specimens were post-fixed in 1% osmium tetroxide for 1 hour, dehydrated in graded acetone solutions and embedded in Epon 812. Ultrathin sections (60-80 nm) were cut on a LKB MK III Ultratome, contrasted with uranyl acetate and lead citrate and examined in a Philips CM10 (Philips,) transmission electron microscope (63). Parietal cells were identified by the presence of secretory canuliculi and/or tubulovesicles, and ECL cells were identified by the presence of characteristic granules and vesicles in the cytoplasm. Point counting methods were used to analyze the voulume density of the various organelles as previously described (64,65). The cells were photographed (nucleated profiles only) at 6,000× magnification; the prints were then enlarged to 20,000× for planimetric analysis. Activated parietal cells were defined as cells having secretory canuliculi in their cytoplasm. The percentage of activated parietal cells was determined by analyzing the electron micrographs of 100 parietal cells per group. Vacuolar canaliculi were defined as canuliculi containing lysosomal bodies and/or vacuoles in their lumen. Lipofuscin bodies were identified by their high electron density (osmiophilia) in the cytoplasm.

gastrin deficient mice [4] = experiment: Parietal cell and ECL cell counts by immunohistochemistry; assay type: in vivo
Protocol: as §1, §2
Small tissue specimens (2×4 mm) were taken from the greater curvature of the oxyntic mucosa. They were fixed either in 4% 1-Ethyl-3(3-dimethylaminopropyl)-carbodiimide hydrochloride (Sigma, St. Louis, Mo.) for histamine staining, or in 4% paraformaldehyde for VMAT-2 staining, for 8-12 h at 4° C., then rinsed with 20% sucrose in 0.1 M phosphate-buffered saline (pH 7.4). Fresh frozen tissue sections were cut in a cryostat (Bright, Huntington, England) at 10 μm thickness. The sections were thawed onto gelatin-coated glass slides. After washing twice for 10 min with phosphate-buffered saline (pH 7.4), containing 0.25% Triton X-100 (PBS-T), the sections were incubated with either histamine antibody 8431 rabbit (Eurodiagnostic, Mahnö, Sweden) at a final dilution of 1:200 or VMAT-2 antibody B-GP 280-1 (Alpha Diagnostic Int., San Antonio, Tex.) at a dilution of 1:2000 overnight at 4° C. After washing twice with PBS-T (10 min each time), the sections were incubated for 1 h at room temperature with FITC-conjugated goat anti-rabbit IgG (Dako, Glostrup, Denmark) for histamine at a 1:40 dilution or donkey anti-guinea pig IgG (Jacksson InmunoResearch, Göteborg, Sweden) for VMAT-2 at a 1:100 dilution. […] The number of immunostained cells were counted and exressed as number per gland of mucosa.
Parietal and ECL cells were stained immunohistochemically as above. At least ten well oriented glands were then assessed for the number of positively stained cells per gland.

| effect on H+/K+-ATPase expression (intensity of immunostaining) (H+/K+-ATPase) | Molecule | potency relative to YF476 (CCK-B/gastrin receptor) | acid output (gastrin deficient mice [1]; after 14 days of infusion) [nEq] | acid output (gastrin deficient mice [1]; after one day of infusion) [nEq] | acid output (gastrin deficient mice [1]; after six days of infusion) [nEq] | proliferation rate of the gastric fundic mucosa (BrdU incorporation) (gastrin deficient mice [2]) | lipofuscin bodies, percentage of cell volume (gastrin deficient mice [3]; 14 day infusion, saline 0.26±0.10%) [%] | vacuolar canaliculi, percentage of cell volume (gastrin deficient mice [3]; 14 day infusion, saline 0.38±0.38%) [%] | activated parietal cells (gastrin deficient mice [3]; after 14 days of infusion, saline 27%) [%] | effect on ECL cell number (histamine or VMAT-2 staining) (gastrin deficient mice [4]; any time point examined) | increase in the number of parietal cells compared to saline (gastrin deficient mice [4]; by day 14 of infusion) [%] | effect on parietal cell number (in words) (gastrin deficient mice [4]; versus saline, or combination versus G-17 alone) |
| --- | --- | --- | --- | --- | --- | --- | --- | --- | --- | --- | --- | --- |
| – | Cc1cccc(NC(=O)N[C@@H]2N=C(c3ccccc3)c3ccccc3N(CC(=O)c3ccccc3C)C2=O)c1 [YM022] | about 5 times | – | – | – | – | – | – | – | – | – | – |
| no effect on H+/K+-ATPase expression | gastrin-17 [G-17] | – | 12.0±2.2 | 21.8±8.8 | 37.4±9.4 | significantly increased proliferation rate | 1.88±0.27 | 7.50±2.40 | 27 | neither G-17, G17-Gly, or the combination influenced ECL cell number | 65 | significant increase in parietal cell number |
